Experimental data as given in patent US10703733B2, “MCL-1 inhibitors” (Gilead Sciences, Inc., priority 2018, dated 2020).
Like-named read-outs stand apart in the source and are kept apart here.

Legend:
[1] = target: MCL-1/Bim interaction (recombinant human MCL-1 protein, residues 171-327; biotinylated human Bim peptide, residues 51-76) (Homo sapiens (Human), UniProt Q07820); test: MCL-1/Bim Binding AlphaLISA Assay; conditions: 0.0625 nM 6xHis-Mcl-1 (171-327), 0.0625 nM biotinylated-Bim peptide
Procedure, shortened: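 Compounds first sat 1 h with MCL-1 (171-327, 0.0625 nM), followed by 2 h with biotin-Bim 51-76 (0.0625 nM), then sequential 1 h anti-His acceptor and streptavidin donor bead steps; buffer Hepes pH 7.5 with NaCl, Brij 35, DTT, BSA. AlphaScreen signal converted to % inhibition using DMSO (negative) and protein/peptide-free (positive) controls.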

[2] = tested on: SKBR3 cells; test: SKBR3 Cell Viability Assay (CellTiter Glo); assay type: cell-based; conditions: CellTiter Glo luminescence, read-out: MCL-1 CV SKBR3 EC50
Procedure, shortened: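 Viability read as CellTiter Glo luminescence after 72 h of compound exposure at 37° C./5% CO2, using 6,000 SKBR3 cells per well in McCoy 5A with 10% FBS. Percent inhibition scaled between DMSO wells and 10 μM puromycin wells.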

Sequence of MCL-1/Bim interaction (recombinant human MCL-1 protein, residues 171-327; biotinylated human Bim peptide, residues 51-76) (Q07820 171-327): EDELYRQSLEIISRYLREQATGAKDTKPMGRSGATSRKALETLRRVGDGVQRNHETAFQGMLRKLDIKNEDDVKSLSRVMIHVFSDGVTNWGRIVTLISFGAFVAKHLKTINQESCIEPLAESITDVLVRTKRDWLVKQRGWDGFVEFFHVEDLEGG

Structure (SMILES)	IC50 [1] [nM]	EC50 ([2]; Homo sapiens, SK-BR-3, 72 h) [nM]	EC50 ([2]; 72 hours) [nM]
COCc1cc(C(=O)N[S@@]2(=O)=NC(=O)c3ccc4c(c3)N(C[C@@H]3CC[C@H]3[C@@H](OC)/C=C/C[C@H](C)C2)C[C@@]2(CCCc3cc(Cl)ccc32)CO4)cn1C [Example 304]	0.129	21.3	
CO[C@H]1/C=C/CCC[S@@](=O)(NC(=O)COc2ccccc2)=NC(=O)c2ccc3c(c2)N(C[C@@H]2CC[C@H]21)C[C@@]1(CCCc2cc(Cl)ccc21)CO3 [Example 96]	0.4	604	
CO[C@H]1/C=C/CCC[S@@](=O)(NC(=O)CCc2ccc(Cl)cc2)=NC(=O)c2ccc3c(c2)N(C[C@@H]2CC[C@H]21)C[C@@]1(CCCc2cc(Cl)ccc21)CO3 [Example 90]	0.5	4560	
CO[C@H]1/C=C/CCC[S@@](=O)(NC(C)=O)=NC(=O)c2ccc3c(c2)N(C[C@@H]2CC[C@H]21)C[C@@]1(CCCc2cc(Cl)ccc21)CO3 [Example 25]	0.6	2010	
COCCCn1cc(C(=O)N[S@@]2(=O)=NC(=O)c3ccc4c(c3)N(C[C@@H]3CC[C@H]3[C@@H](OC)/C=C/C[C@H](C)C2)C[C@@]2(CCCc3cc(Cl)ccc32)CO4)cc1COC [Example 338]	0.09	124	
CO[C@H]1/C=C/C[C@H](C)C[S@@](=O)(NC(=O)N[C@@H]2[C@@H]3COC[C@@H]32)=NC(=O)c2ccc3c(c2)N(C[C@@H]2CC[C@H]21)C[C@@]1(CCCc2cc(Cl)ccc21)CO3 [Example 449]	0.131	147	
CC[C@@H]1CC/C=C/[C@H](OC)[C@@H]2CC[C@H]2CN2C[C@@]3(CCCc4cc(Cl)ccc43)COc3ccc(cc32)C(=O)N=S1(=O)NC(=O)CCc1ccnn1C (single isomer, unassigned) [Example 71]	0.7		1390
COC(=O)N1CC[C@@H](C(=O)N[S@@]2(=O)=NC(=O)c3ccc4c(c3)N(C[C@@H]3CC[C@H]3[C@@H](OC)/C=C/C[C@H](C)C2)C[C@@]2(CCCc3cc(Cl)ccc32)CO4)C1 [Example 438]	0.187	278	
CO[C@H]1/C=C/C[C@H](C)C[S@@](=O)(NC(=O)[C@H]2CCc3cnn(C)c3C2)=NC(=O)c2ccc3c(c2)N(C[C@@H]2CC[C@H]21)C[C@@]1(CCCc2cc(Cl)ccc21)CO3 (single isomer, unassigned) [Example 141]	0.086	65.3	
CO[C@H]1/C=C/C[C@H](C)C[S@@](=O)(NC(=O)NC2CC3(C2)CC(F)(F)C3)=NC(=O)c2ccc3c(c2)N(C[C@@H]2CC[C@H]21)C[C@@]1(CCCc2cc(Cl)ccc21)CO3 [Example 437]	0.301	123	
CCC(=O)N[S@@]1(=O)=NC(=O)c2ccc3c(c2)N(C[C@@H]2CC[C@H]2[C@@H](OCCN2CCOCC2)/C=C/CCC1)C[C@@]1(CCCc2cc(Cl)ccc21)CO3 (single isomer, unassigned) [Example 67]	1.2	1040	
CO[C@H]1/C=C/C[C@H](C)C[S@@](=O)(NC(=O)N2C3COCC2C3)=NC(=O)c2ccc3c(c2)N(C[C@@H]2CC[C@H]21)C[C@@]1(CCCc2cc(Cl)ccc21)CO3 [Example 236]	0.055	152	
CO[C@H]1/C=C/CCC[S@@](=O)(NC(=O)[C@@H]2C[C@H]2c2ccnn2C)=NC(=O)c2ccc3c(c2)N(C[C@@H]2CC[C@H]21)C[C@@]1(CCCc2cc(Cl)ccc21)CO3 [Example 83]	0.1		460
COC1CC2(C1)CN(C(=O)N[S@@]1(=O)=NC(=O)c3ccc4c(c3)N(C[C@@H]3CC[C@H]3[C@@H](OC)/C=C/C[C@H](C)C1)C[C@@]1(CCCc3cc(Cl)ccc31)CO4)C2 [Example 257]	0.083	89.7	
CCn1cc(C(=O)N[S@@]2(=O)=NC(=O)c3ccc4c(c3)N(C[C@@H]3CC[C@H]3[C@@H](OC)/C=C/C[C@H](C)C2)C[C@@]2(CCCc3cc(Cl)ccc32)CO4)cn1 [Example 134]	0.072	59.6	
COC(=O)c1cc(C(=O)N[S@@]2(=O)=NC(=O)c3ccc4c(c3)N(C[C@@H]3CC[C@H]3[C@@H](OC)/C=C/C[C@H](C)C2)C[C@@]2(CCCc3cc(Cl)ccc32)CO4)cn1C [Example 358]	0.114	95.1	
